For data set [1], the system named is 5HT2 receptors. Kind of data set: DOI locomotor activity test in rats (DOI inhibition study), intraperitoneal test compound. It is filed as in vivo, rat (male Sprague-Dawley). To be noted: i.p. 30 min before DOI (0.3 mg/kg s.c.). As for the experimental part:
FIG. 3 provides a graphic summary of dose-response results from in vivo analysis of compound 116082 in a 1-(2,5-dimethoxy-4-iodophenyl)-2-aminopropane ("DOI") inhibition study (fine movement; ambulation; and animal rearing outcome measures). 116082 was administered 30 min prior to DOI. Animals were placed in locomotor activity cages 10 min after DOI administration and activity was measured for 10 min. Results are presented as total activity counts over the 10 min of exposure to the locomotor activity apparatus.
FIG. 4 provides a graphic summary of dose-response results from in vivo analysis of compound 116081 in a DOI inhibition study (fine movement; ambulation; and animal rearing outcome measures). 116081 was administered 30 min prior to DOI. Animals were placed in locomotor activity cages 10 min after DOI administration and activity was measured for 10 min. Results are presented as total activity counts over the 10 min of exposure to the locomotor activity apparatus.
Assessment of 5-HT2 receptor antagonism in vivo was made by using the DOI locomotor activity test in rats as described by Krebs-Thomson (Psychopharmacology, 140:69-74, 1998).
Motor function was assessed by using automated locomotor activity cages. The rats were placed in a standard rodent cage surrounded by photocell beams, which allow for automated recording of motor activity. […]

A short description of data set [2]: DOI inhibition study in rats, oral administration of test compound (oral availability). It is filed as in vivo, rat. To be noted: in vivo; rat; 50 mg/kg oral vs 10 mg/kg i.p., inferred from DOI test. As for the experimental part:
(§1) FIG. 6 provides a graphic summary of the effects of oral administration of 116082 and 116081 in a DOI inhibition study in rats. Values represent the mean±SEMs (n=6/group). #P<0.05 vs. vehicle/vehicle, *P<0.05 vs. vehicle/DOI, Student t-test.
(§2) Based upon the in vivo data developed, oral bioavailability of compounds […] was considered. The compounds were administered by oral gavage at a dose of 50 mg/kg, 30 min prior to DOI in rats (see Example 11A, supra). Animals were placed in the locomotor activity cages 10 min after DOI administration and activity was measured for 10 min. Results, presented in FIG. 6, provide total activity counts over the 10 min of exposure to the locomotor activity apparatus.

In data set [3] the test system is 5HT2 receptors. Described as above. The data set is classed as in vivo, rat. The protocol: as §1, §2

One may read the bioavailability as the share of a dose that reaches the circulation, judged against a reference dose that is usually intravenous. A high value points to good availability. Take `Cn1cc(Br)c(-c2cccc(NC(=O)Nc3ccc(Cl)cc3)c2)n1` [Compound 116081, N-[3-(4-bromo-1-methylpyrazol-3-yl)phenyl][(4-chlorophenyl)amino]carboxamide]: the “reversal of DOI-induced motor dysfunction” value with 5HT2 receptors [1] was “beneficially reverses DOI-induced motor dysfunction”. In data set [2], the bioavailability was at least 20%. For the same molecule, the “oral efficacy compared with intraperitoneal administration” value in the data set with 5HT2 receptors [3] (50 mg/kg oral vs 10 mg/kg i.p.) was “as efficacious as a 10 mg/kg dose of the same compounds administered intraperitoneally”. Also, the “reversal of DOI-induced motor dysfunction, oral” value in the data set with 5HT2 receptors [3] (oral gavage 50 mg/kg, 30 min prior to DOI) was “reversed DOI-induced motor dysfunction in rats”. In the data set on 5HT2 receptors [3] (rat, DOI test, 50 mg/kg oral), the oral activity entry is given as “orally active”.

(Values after patent US6150393A (priority 1999, dated 2000).)
